Test results reported in PubChem BioAssay (NCI).
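Method: 48-hour compound exposure of cells in 96-well plates, five concentrations, linear interpolation of endpoints. GI50 = concentration required for 50% inhibition of growth. TGI denotes the concentration required for complete inhibition of growth.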

Key:
Assay in all cases: NCI anticancer screen, dose series, 48 h
HCT-15 colon = tested on: HCT-15 colon
OVCAR-5 ovarian = tested on: OVCAR-5 ovarian
SK-MEL-28 melanoma = tested on: SK-MEL-28 melanoma
NCI-H23 lung = tested on: NCI-H23 lung
EKVX NSCLC = tested on: EKVX NSCLC
MOLT-4 leukemia = tested on: MOLT-4 leukemia
M14 melanoma = tested on: M14 melanoma
BT-549 breast = tested on: BT-549 breast
CAKI-1 renal = tested on: CAKI-1 renal
DU-145 prostate = tested on: DU-145 prostate
SK-MEL-5 melanoma = tested on: SK-MEL-5 melanoma
COLO 205 colon = tested on: COLO 205 colon
OVCAR-8 ovarian = tested on: OVCAR-8 ovarian
SK-MEL-2 melanoma = tested on: SK-MEL-2 melanoma
KM12 colon = tested on: KM12 colon
A498 renal = tested on: A498 renal
PC-3 prostate = tested on: PC-3 prostate
SF-268 CNS = tested on: SF-268 CNS
ACHN renal = tested on: ACHN renal
786-0 renal = tested on: 786-0 renal
HT29 colon = tested on: HT29 colon
MDA-MB-231 breast = tested on: MDA-MB-231 breast
UACC-257 melanoma = tested on: UACC-257 melanoma
LOX IMVI melanoma = tested on: LOX IMVI melanoma
UO-31 renal = tested on: UO-31 renal
CCRF-CEM leukemia = tested on: CCRF-CEM leukemia
A549 NSCLC = tested on: A549 NSCLC
SR leukemia = tested on: SR leukemia
HCC-2998 colon = tested on: HCC-2998 colon
SNB-19 CNS = tested on: SNB-19 CNS
HS 578T breast = tested on: HS 578T breast
HOP-92 NSCLC = tested on: HOP-92 NSCLC
HL-60(TB) leukemia = tested on: HL-60(TB) leukemia
K-562 leukemia = tested on: K-562 leukemia
SN12C renal = tested on: SN12C renal
HOP-62 NSCLC = tested on: HOP-62 NSCLC
RPMI-8226 leukemia = tested on: RPMI-8226 leukemia
SK-OV-3 ovarian = tested on: SK-OV-3 ovarian
RXF 393 renal = tested on: RXF 393 renal
HCT-116 colon = tested on: HCT-116 colon
UACC-62 melanoma = tested on: UACC-62 melanoma
SF-295 CNS = tested on: SF-295 CNS
MDA-MB-435 = tested on: MDA-MB-435
SF-539 CNS = tested on: SF-539 CNS
SW-620 colon = tested on: SW-620 colon
TK-10 renal = tested on: TK-10 renal
SNB-75 CNS = tested on: SNB-75 CNS
MCF7 breast = tested on: MCF7 breast
NCI-H460 lung = tested on: NCI-H460 lung
IGROV1 ovarian = tested on: IGROV1 ovarian
OVCAR-4 ovarian = tested on: OVCAR-4 ovarian
T-47D breast = tested on: T-47D breast
NCI-H226 lung = tested on: NCI-H226 lung
NCI/ADR-RES ovarian = tested on: NCI/ADR-RES ovarian
OVCAR-3 ovarian = tested on: OVCAR-3 ovarian
U251 CNS = tested on: U251 CNS
NCI-H522 lung = tested on: NCI-H522 lung

## CC1(C)CN(CCNc2nccc(-c3c(-c4cccc(O)c4)nc4sccn34)n2)S(=O)(=O)N1
HCT-15 colon
  GI50: 11.5 µM
  TGI: > 33.2 µM
OVCAR-5 ovarian
  GI50: > 33.2 µM
  TGI: > 33.2 µM
SK-MEL-28 melanoma
  GI50: 0.268 µM
  TGI: > 33.2 µM
NCI-H23 lung
  GI50: 16.8 µM
  TGI: > 33.2 µM
EKVX NSCLC
  GI50: > 33.2 µM
  TGI: > 33.2 µM
MOLT-4 leukemia
  GI50: 11.3 µM
  TGI: > 33.2 µM
M14 melanoma
  GI50: 0.317 µM
  TGI: > 26.4 µM
BT-549 breast
  GI50: > 22.5 µM
  TGI: > 33.2 µM
CAKI-1 renal
  GI50: 6.12 µM
  TGI: > 27.2 µM
DU-145 prostate
  GI50: 7.48 µM
  TGI: > 33.2 µM
SK-MEL-5 melanoma
  GI50: 1.29 µM
  TGI: 12.5 µM
COLO 205 colon
  GI50: 0.448 µM
  TGI: 7.25 µM
OVCAR-8 ovarian
  GI50: 0.307 µM
  TGI: > 33.2 µM
SK-MEL-2 melanoma
  GI50: 1.36 µM
  TGI: 4.83 µM
KM12 colon
  GI50: 11.9 µM
  TGI: > 33.2 µM
A498 renal
  GI50: 1.55 µM
  TGI: 19.7 µM
PC-3 prostate
  GI50: 17.1 µM
  TGI: > 33.2 µM
SF-268 CNS
  GI50: 21.8 µM
  TGI: > 33.2 µM
ACHN renal
  GI50: 7.07 µM
  TGI: > 33.2 µM
786-0 renal
  GI50: 11.2 µM
  TGI: > 33.2 µM
HT29 colon
  GI50: 3.2 µM
  TGI: > 33.2 µM
MDA-MB-231 breast
  GI50: 7.94 µM
  TGI: > 33.2 µM
UACC-257 melanoma
  GI50: 2.12 µM
  TGI: > 33.2 µM
LOX IMVI melanoma
  GI50: 1.82 µM
  TGI: > 33.2 µM
UO-31 renal
  GI50: 13.3 µM
  TGI: > 33.2 µM
CCRF-CEM leukemia
  GI50: 7.25 µM
  TGI: > 33.2 µM
A549 NSCLC
  GI50: 14.2 µM
  TGI: > 33.2 µM
SR leukemia
  GI50: 3.34 µM
  TGI: > 33.2 µM
HCC-2998 colon
  GI50: 19.5 µM
  TGI: > 33.2 µM
SNB-19 CNS
  GI50: > 33.2 µM
  TGI: > 33.2 µM
HS 578T breast
  GI50: 4.72 µM
  TGI: 25 µM
HOP-92 NSCLC
  GI50: 29.4 µM
  TGI: > 33.2 µM
HL-60(TB) leukemia
  GI50: 10.2 µM
  TGI: 30.2 µM
K-562 leukemia
  GI50: 6.46 µM
  TGI: > 33.2 µM
SN12C renal
  GI50: 9.86 µM
  TGI: > 33.2 µM
HOP-62 NSCLC
  GI50: 32.7 µM
  TGI: > 33.2 µM
RPMI-8226 leukemia
  GI50: 16.6 µM
  TGI: > 33.2 µM
SK-OV-3 ovarian
  GI50: 7.86 µM
  TGI: > 33.2 µM
RXF 393 renal
  GI50: 3 µM
  TGI: 21.6 µM
HCT-116 colon
  GI50: 5.05 µM
  TGI: > 33.2 µM
UACC-62 melanoma
  GI50: 0.116 µM
  TGI: 3.3 µM
SF-295 CNS
  GI50: 17.7 µM
  TGI: > 33.2 µM
MDA-MB-435
  GI50: 0.641 µM
  TGI: > 33.2 µM
SF-539 CNS
  GI50: 30 µM
  TGI: > 33.2 µM
SW-620 colon
  GI50: 15.7 µM
  TGI: > 33.2 µM
TK-10 renal
  GI50: > 22.6 µM
  TGI: > 33.2 µM
SNB-75 CNS
  GI50: 5.14 µM
  TGI: > 33.2 µM
MCF7 breast
  GI50: 9.66 µM
  TGI: > 33.2 µM
NCI-H460 lung
  GI50: 7.07 µM
  TGI: > 33.2 µM
IGROV1 ovarian
  GI50: 6.58 µM
  TGI: > 33.2 µM
OVCAR-4 ovarian
  GI50: 12.8 µM
  TGI: > 33.2 µM
T-47D breast
  GI50: 11.2 µM
  TGI: > 33.2 µM
NCI-H226 lung
  GI50: 10.4 µM
  TGI: 32.4 µM
NCI/ADR-RES ovarian
  GI50: > 33.2 µM
  TGI: > 33.2 µM
OVCAR-3 ovarian
  GI50: 12.2 µM
  TGI: > 33.2 µM
U251 CNS
  GI50: 8.78 µM
  TGI: > 33.2 µM
NCI-H522 lung
  GI50: 8.52 µM
  TGI: > 33.2 µM
